Results from patent publication US6737383B1, “Herbicidal oxadiazolidines” (priority 1999, dated 2004).

Legend:
bedstraw = assay: Test B pre/postemergence bedstraw; assay type: in vivo, Galium aparine
Outline: (§1)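 Herbicidal effect was estimated by eye on a ten-point control scale after plants spent twelve to sixteen days in a greenhouse following soil or foliar treatment. Foliar sprays targeted plants at one to four leaves; all doses were formulated in a non-phytotoxic solvent with surfactant.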

blackgrass = assay: Test B pre/postemergence blackgrass; assay type: in vivo, Alopecurus myosuroides
Outline: as §1

surinam grass = assay: Test B pre/postemergence surinam grass; assay type: in vivo, Brachiaria decumbens
Outline: as §1

cocklebur = assay: Test B pre/postemergence cocklebur; assay type: in vivo, Xanthium strumarium
Outline: as §1

corn = assay: Test B pre/postemergence corn; assay type: in vivo, Zea mays
Outline: as §1

crabgrass = assay: Test B pre/postemergence crabgrass; assay type: in vivo, Digitaria sanguinalis
Outline: as §1

giant foxtail = assay: Test B pre/postemergence giant foxtail; assay type: in vivo, Setaria faberii
Outline: as §1

morningglory = assay: Test B pre/postemergence morningglory; assay type: in vivo, Ipomoea hederacea
Outline: as §1

pigweed = assay: Test B pre/postemergence pigweed; assay type: in vivo, Amaranthus retroflexus
Outline: as §1

soybean = assay: Test B pre/postemergence soybean; assay type: in vivo, Glycine max
Outline: as §1

sugar beet = assay: Test B pre/postemergence sugar beet; assay type: in vivo, Beta vulgaris
Outline: as §1

wild oat = assay: Test B pre/postemergence wild oat; assay type: in vivo, Avena fatua
Outline: as §1

purple nutsedge = assay: Test B pre/postemergence purple nutsedge; assay type: in vivo, Cyperus rotundus
Outline: as §1

rice = assay: Test B flood test rice; assay type: in vivo, Oryza sativa
Outline: (§2)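 Plants were grown to the 2-leaf stage before treatment with test chemical, then held in a greenhouse for twelve to sixteen days. Injury was visually rated against untreated controls on a 0–10 scale, where 0 is no effect and 10 is complete control.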

smallflower flatsedge = assay: Test B flood test smallflower flatsedge; assay type: in vivo, Cyperus difformis
Outline: as §2

duck salad = assay: Test B flood test duck salad; assay type: in vivo, Heteranthera limosa
Outline: as §2

[1] = Postemergence, Rate 125 g/ha, scale of 0 to 10 where 0 is no effect and 10 is complete control
[2] = Preemergence, Rate 62 g/ha, scale of 0 to 10 where 0 is no effect and 10 is complete control
[3] = Preemergence, Rate 125 g/ha, 0 is no effect, 10 is complete control
[4] = Preemergence, Rate 250 g/ha, scale 0 to 10, 0 is no effect, 10 is complete control
[5] = Preemergence, Rate 500 g/ha, scale 0 to 10 (0 no effect, 10 complete control)
[6] = Rate 62 g/ha, Postemergence, scale of 0 to 10 where 0 is no effect and 10 is complete control
[7] = Rate 250 g/ha, Postemergence, scale 0 to 10, 0 is no effect, 10 is complete control
[8] = Rate 500 g/ha, Postemergence, scale 0 to 10
[9] = Postemergence (flood test species), Rate 125 g/ha, scale of 0 to 10 where 0 is no effect and 10 is complete control
[10] = Rate 62 g/ha, Postemergence section, flood test species, scale of 0 to 10 where 0 is no effect and 10 is complete control
[11] = Rate 250 g/ha, Postemergence (flood test), scale 0 to 10, 0 is no effect, 10 is complete control
[12] = Rate 500 g/ha, listed under Postemergence (flood test species), scale 0 to 10

CC(C)N(C(=O)n1oc(=O)n(N(C)C)c1=O)c1ccc(F)cc1 [Compound 170]
10: Blackgrass plant response rating (blackgrass; [2]) | Blackgrass plant response rating (0 to 10 scale) (blackgrass; [3]) | Blackgrass plant response rating (blackgrass; [4]) | Blackgrass plant response rating (blackgrass; [5]) | B. signalgrass plant response rating (surinam grass; [4]) | B. signalgrass plant response rating (surinam grass; [5]) | B. signalgrass plant response rating (surinam grass; Rate 500 g/ha, Postemergence, scale 0 to 10, 0 no effect, 10 complete control) | Crabgrass plant response rating (0 to 10 scale) (crabgrass; [3]) | Crabgrass plant response rating (crabgrass; [4]) | Crabgrass plant response rating (crabgrass; [5]) | Giant foxtail plant response rating (0 to 10 scale) (giant foxtail; [3]) | Giant foxtail plant response rating (giant foxtail; [4]) | Giant foxtail plant response rating (giant foxtail; [5]) | Morningglory plant response rating (morningglory; [5]) | Redroot pigweed plant response rating (pigweed; [2]) | Redroot pigweed plant response rating (0 to 10 scale) (pigweed; [3]) | Redroot pigweed plant response rating (pigweed; [4]) | Redroot pigweed plant response rating (pigweed; [5]) | Sugarbeets plant response rating (sugar beet; [5]) | Wild oats plant response rating (wild oat; [4]) | Wild oats plant response rating (wild oat; [5])
3: B. signalgrass plant response rating (surinam grass; [6]) | Morningglory plant response rating (0 to 10 scale) (morningglory; [3]) | Soybean plant response rating (soybean; [1]) | Plant response rating, Wild oats (wild oat; [7])
6: Bedstraw plant response rating (bedstraw; [4]) | B. signalgrass plant response rating (surinam grass; [1]) | Corn plant response rating (corn; [4]) | Morningglory plant response rating (morningglory; [4]) | Plant response rating, Redroot pigweed (pigweed; [7]) | Redroot pigweed plant response rating (pigweed; [8]) | Wild oats plant response rating (wild oat; [8])
0: Bedstraw plant response rating (bedstraw; [1]) | Bedstraw plant response rating (bedstraw; [2]) | Bedstraw plant response rating (0 to 10 scale) (bedstraw; [3]) | Bedstraw plant response rating (bedstraw; [6]) | Plant response rating, Bedstraw (bedstraw; [7]) | Cocklebur plant response rating (cocklebur; [1]) | Cocklebur plant response rating (cocklebur; [2]) | Cocklebur plant response rating (0 to 10 scale) (cocklebur; [3]) | Cocklebur plant response rating (cocklebur; [4]) | Cocklebur plant response rating (cocklebur; [6]) | Plant response rating, Cocklebur (cocklebur; [7]) | Cocklebur plant response rating (cocklebur; [8]) | Corn plant response rating (corn; [1]) | Corn plant response rating (corn; [2]) | Corn plant response rating (corn; [6]) | Plant response rating, Corn (corn; [7]) | Corn plant response rating (corn; [8]) | Morningglory plant response rating (morningglory; [2]) | Morningglory plant response rating (morningglory; [6]) | Redroot pigweed plant response rating (pigweed; [1]) | Redroot pigweed plant response rating (pigweed; [6]) | Soybean plant response rating (soybean; [2]) | Sugarbeets plant response rating (sugar beet; [1]) | Sugarbeets plant response rating (sugar beet; [6]) | Nutsedge plant response rating (purple nutsedge; [2]) | Rice plant response rating (rice; [9]) | Rice plant response rating (rice; [10]) | Plant response rating, Rice (rice; [11]) | Rice plant response rating (rice; [12]) | S. Flatsedge plant response rating (smallflower flatsedge; [9]) | S. Flatsedge plant response rating (smallflower flatsedge; [10]) | Plant response rating, S. Flatsedge (smallflower flatsedge; [11]) | S. Flatsedge plant response rating (smallflower flatsedge; [12]) | Ducksalad plant response rating (duck salad; [9]) | Ducksalad plant response rating (duck salad; [10]) | Plant response rating, Ducksalad (duck salad; [11]) | Ducksalad plant response rating (duck salad; [12])
4: Giant foxtail plant response rating (giant foxtail; [6]) | Soybean plant response rating (soybean; [4]) | Plant response rating, Soybean (soybean; [7]) | Sugarbeets plant response rating (sugar beet; [2]) | Sugarbeets plant response rating (sugar beet; [8])
1: Morningglory plant response rating (morningglory; [1]) | Plant response rating, Morningglory (morningglory; [7]) | Soybean plant response rating (0 to 10 scale) (soybean; [3])
9: Bedstraw plant response rating (bedstraw; [5]) | Blackgrass plant response rating (blackgrass; [1]) | Blackgrass plant response rating (blackgrass; [6]) | Plant response rating, Blackgrass (blackgrass; [7]) | Blackgrass plant response rating (blackgrass; [8]) | B. signalgrass plant response rating (0 to 10 scale) (surinam grass; [3]) | Plant response rating, B. signalgrass (surinam grass; [7]) | Cocklebur plant response rating (cocklebur; [5]) | Corn plant response rating (corn; [5]) | Crabgrass plant response rating (crabgrass; [1]) | Plant response rating, Crabgrass (crabgrass; [7]) | Crabgrass plant response rating (crabgrass; [8]) | Giant foxtail plant response rating (giant foxtail; [2]) | Soybean plant response rating (soybean; [5]) | Wild oats plant response rating (0 to 10 scale) (wild oat; [3]) | Nutsedge plant response rating (0 to 10 scale) (purple nutsedge; [3]) | Nutsedge plant response rating (purple nutsedge; [4]) | Nutsedge plant response rating (purple nutsedge; [5])
8: Crabgrass plant response rating (crabgrass; [2]) | Crabgrass plant response rating (crabgrass; [6]) | Plant response rating, Giant foxtail (giant foxtail; [7]) | Giant foxtail plant response rating (giant foxtail; [8]) | Sugarbeets plant response rating (0 to 10 scale) (sugar beet; [3]) | Sugarbeets plant response rating (sugar beet; [4])
2: Bedstraw plant response rating (bedstraw; [8]) | B. signalgrass plant response rating (surinam grass; [2]) | Corn plant response rating (0 to 10 scale) (corn; [3]) | Morningglory plant response rating (morningglory; [8]) | Soybean plant response rating (soybean; [6]) | Plant response rating, Sugarbeets (sugar beet; [7]) | Nutsedge plant response rating (purple nutsedge; [1]) | Nutsedge plant response rating (purple nutsedge; [6])
7: Giant foxtail plant response rating (giant foxtail; [1]) | Soybean plant response rating (soybean; [8]) | Wild oats plant response rating (wild oat; [2]) | Plant response rating, Nutsedge (purple nutsedge; [7]) | Nutsedge plant response rating (purple nutsedge; [8])
